Source: ChEMBL document CHEMBL4130531 (ACS Med Chem Lett, 2017)
Converted amounts (≈) assume the structure as drawn. One block for each compound: values may come before it.

Key:
[1] = Solubility of the compound at pH 6.8; format: physicochemical; conditions: buffer
[2] = AUC in Sprague-Dawley rat at 10 mg/kg, po by HLPC-MS analysis; format: ADME, organism-based; conditions: in vivo
[3] = Ratio of drug level in brain to plasma in C57BL/6 mouse at 30 mg/kg, po measured at 1 hr by HPLC-MS analysis; format: ADME, organism-based; conditions: brain and plasma, read-out: BPR
[4] = Ratio of drug level in brain to plasma in Sprague-Dawley rat at 5 mg/kg, iv by HPLC-MS analysis; format: ADME, organism-based; conditions: brain and plasma, read-out: BPR
[5] = AUC in Sprague-Dawley rat plasma at 5 mg/kg, iv by HPLC-MS analysis; format: ADME, organism-based
[6] = AUC in Sprague-Dawley rat brain at 5 mg/kg, iv by HPLC-MS analysis; format: ADME, organism-based
[7] = AUC (0 to 48 hrs) in HSD athymic nude mouse xenografted with human HCHZ2H1 cells at 200 mg/kg, po administered as single dose by LC-MS/MS analysis; format: ADME, organism-based; set-up: dose 200 mg/kg, time < 48 hr, route oral; conditions: in vivo
[8] = Cmax in HSD athymic nude mouse xenografted with human HCHZ2H1 cells at 200 mg/kg, po administered as single dose by LC-MS/MS analysis; format: ADME, organism-based; set-up: dose 200 mg/kg, route oral; conditions: in vivo
[9] = system: Mus musculus; experiment: Unbound AUC (0 to 48 hrs) in HSD athymic nude mouse xenografted with human HCHZ2H1 cells at 200 mg/kg, po administered as single dose by LC-MS/MS analysis; format: ADME, organism-based; conditions: in vivo
[10] = system: Mus musculus; experiment: Unbound Cmax in HSD athymic nude mouse xenografted with human HCHZ2H1 cells at 200 mg/kg, po administered as single dose by LC-MS/MS analysis; format: ADME, organism-based; conditions: in vivo
[11] = system: Mus musculus; experiment: Time at which unbound plasma concentration stays above cellular IDH1 R132H mutant inhibitory IC50 in HSD athymic nude mouse xenografted with human HCHZ2H1 cells; format: ADME, organism-based; conditions: in vivo
[12] = AUC (0 to 8 hrs) in nude mouse xenografted with human HMEX2838 cells at 30 mg/kg, po administered via gavage as single dose by LC-MS/MS analysis; format: ADME, organism-based; set-up: dose 30 mg/kg, time < 8 hr, route oral; conditions: in vivo
[13] = AUC (0 to 8 hrs) in nude mouse xenografted with human HMEX2838 cells at 100 mg/kg, po administered via gavage as single dose by LC-MS/MS analysis; format: ADME, organism-based; set-up: time < 8 hr, dose 100 mg/kg, route oral; conditions: in vivo
[14] = AUC (0 to 24 hrs) in nude mouse xenografted with human HMEX2838 cells at 300 mg/kg, po administered via gavage as single dose by LC-MS/MS analysis; format: ADME, organism-based; set-up: dose 300 mg/kg, time < 24 hr, route oral; conditions: in vivo
[15] = AUC (0 to 12 hrs) in nude mouse xenografted with human HMEX2838 cells at 30 mg/kg, po bid administered via gavage by LC-MS/MS analysis; format: ADME, organism-based; set-up: time < 12 hr, dose 30 mg/kg, route oral; conditions: in vivo
[16] = AUC (0 to 12 hrs) in nude mouse xenografted with human HMEX2838 cells at 100 mg/kg, po bid administered via gavage by LC-MS/MS analysis; format: ADME, organism-based; set-up: time < 12 hr, dose 100 mg/kg, route oral; conditions: in vivo
[17] = AUC (0 to 12 hrs) in nude mouse xenografted with human HMEX2838 cells at 300 mg/kg, po bid administered via gavage by LC-MS/MS analysis; format: ADME, organism-based; set-up: time < 12 hr, dose 300 mg/kg, route oral; conditions: in vivo
[18] = Lipophilicity, log D of the compound at pH 7.4; format: physicochemical; conditions: buffer
[19] = Fraction absorbed of compound by PAMPA; format: ADME; conditions: read-out: Fabs
[20] = in vivo; conditions: C57BL/6, mouse, brain and plasma, po, 30 mg/kg
[21] = in vivo; conditions: Sprague-Dawley, rat, brain and plasma, iv, 5 mg/kg

Compound: Cc1cc(-c2cnc([C@H](C)Nc3nccc(N4C(=O)OC[C@@H]4C(C)C)n3)cn2)ccc1F
solubility [1]: < 5 µM

Compound: Cc1cc([C@H](C)Nc2nccc(N3C(=O)OC[C@@H]3[C@H](C)F)n2)ncc1-c1ccnc(C(F)(F)F)c1
Kp at 1 h [3]: 0.29 | Kp [4]: 0.61 | AUC [5]: 5.5 µM·h | AUC [6]: 3.4 µM·h | AUC(0-t) at 48 h [7]: 149 µM·h | AUC [2]: 6.2 µM·h | Cmax [8]: 16.2 µM | fAUC [9]: 17.3 µM·h | fCmax [10]: 1.88 µM | Time [11]: > 12 h | AUC(0-t) at 8 h [12]: 10.1 µM·h | AUC(0-t) at 8 h [13]: 71.9 µM·h | AUC(0-t) at 24 h [14]: 212 µM·h | AUC at 12 h [15]: 5.4 µM·h | AUC at 12 h [16]: 19.2 µM·h | AUC at 12 h [17]: 88.9 µM·h | solubility [1]: 130 µM (≈ 63.8 µg/mL) | logD [18]: 2.8 | Fa [19]: 99.3% | Kp uu at 1 h [20]: 0.17 | Kp uu [21]: 0.18

The next lines start with the values.

solubility [1]: 430 µM (≈ 180 µg/mL)
Compound: Cc1cc(-c2ccc([C@H](C)Nc3nccc(N4C(=O)OC[C@@H]4C(C)C)n3)nc2)ccn1

AUC [2]: 1.6 µM·h
Compound: CC(C)[C@H]1COC(=O)N1c1ccnc(N[C@@H](C)c2ccc(-c3ccnc(C(F)(F)F)c3)cn2)n1

AUC [2]: 0.2 µM·h | logD [18]: 3.4
Compound: Cc1cc(-c2cnc([C@H](C)Nc3nccc(N4C(=O)OC[C@@H]4C(C)C)n3)nc2)ccc1F
